Source: patent US4798897A, “Isoquinoline derivatives” (Asahi Kasei Kogyo Kabushiki Kaisha, priority 1987, dated 1989)
pEC50: −log10 of the molar value.

How the values were obtained:
[1] = test system: bronchial tubes; assay: Inhibition of histamine contraction of bronchial tubes (relaxation of bronchial tubes); conditions: Cavia porcellus; guinea pig bronchial tube, 10 μM histamine; Table 16; read-out: ED50 (50% decrease of histamine contraction of bronchial tubes)
Protocol: 3. Inhibition of Histamine Contraction of Bronchial Tubes (Relaxation of Bronchial Tubes)
That is, a bronchial tube sample taken from a guinea pig was suspended in the 20-ml bath filled with Krebs-Henseleit nutrient solution and maintained at a temperature of 37° C. To the bath was added histamine so that the histamine concentration became 10 μM, causing the bronchial tube sample to contract. After the contraction became stable, the compounds of the present invention were added cumulatively to the bath to observe relaxation of the bronchial tube sample.
The effect of the compounds of the present invention on relaxation of bronchial tubes was examined according to the method as mentioned hereinbefore.

[2] = test system: mesenteric artery; assay: Relaxation of mesenteric artery (KCl-contracted); conditions: Oryctolagus cuniculus; rabbit mesenteric artery contracted with 15 to 20 mM KCl; read-out: ED50 (concentration attaining 50% of complete relaxation)
Protocol: 1. Relaxation of Mesenteric Artery
A rabbit of Japanese local variety weighing about 3 kg was bled to death. Then, the abdomen of the rabbit was dissected to locate a mesenteric artery. […] Thus, shrinking and relaxation of the artery could be measured as a load on the transducer. To the organ bath, KCl was added so that the KCl concentration became 15 to 20 mM, causing the artery to shrink. Then, the compounds of the present invention were added to the organ bath to observe relaxation of the artery.
The effect of the compounds of the present invention on relaxation of mesenteric artery was examined according to the method as mentioned hereinbefore.

Row | pEC50 [1] | pEC50 [2] | Compound
1 | 4.74 | 4.80 | CNC1CCN(S(=O)(=O)c2cccc3c(Cl)nccc23)C1 (stereo not shown) [Compound (102), 1-(1-chloro-5-isoquinolinesulfonyl)-3-methylaminopyrrolidine]
2 | 4.92 | 4.85 | CNC1CCN(S(=O)(=O)c2cccc3cnccc23)CC1 [Compound (52), 1-(5-isoquinolinesulfonyl)-4-methylaminopiperidine]
3 | 4.89 | 4.89 | CCCCCCNC1CCCN(S(=O)(=O)c2cccc3c(Cl)nccc23)C1 (stereo not shown) [Compound (98), 1-(1-chloro-5-isoquinolinesulfonyl)-3-hexylaminopiperidine]
4 | 4.77 | 4.64 | CN(C)C1CCCN(S(=O)(=O)c2cccc3c(O)nccc23)C1 (stereo not shown) [Compound (90), 1-(1-hydroxy-5-isoquinolinesulfonyl)-3-dimethylaminopiperidine]
5 | 4.59 | 4.59 | CCN(CCCCCN1CCCCC1)S(=O)(=O)c1cccc2cnccc12 [Compound (50), N-ethyl-N-(5-piperidinopentyl)-5-isoquinolinesulfonamide]
6 | 4.82 | – | CCCCCCN(C(C)CN(CC)CC)S(=O)(=O)c1cccc2cnccc12 (stereo not shown) [Compound (49), N-(2-diethylamino-1-methylethyl)-N-hexyl-5-isoquinolinesulfonamide]
7 | 4.68 | 4.68 | O=S(=O)(c1cccc2c(O)nccc12)N1CCC(Nc2ccccc2)CC1 [Compound (82), 1-(1-hydroxy-5-isoquinolinesulfonyl)-4-phenylaminopiperidine]
8 | 4.89 | 4.89 | CCCCCCN(CCNCCCC)S(=O)(=O)c1cccc2cnccc12 [Compound (27), N-(2-butylaminoethyl)-N-hexyl-5-isoquinolinesulfonamide]
9 | 4.89 | 4.72 | O=S(=O)(c1cccc2cnccc12)N1CCC(NCc2ccccc2)CC1 [Compound (60), 1-(5-isoquinolinesulfonyl)-4-benzylaminopiperidine]
10 | – | 4.80 | O=S(=O)(c1cccc2cnccc12)N1CCCC(Nc2ccccc2)C1 (stereo not shown) [Compound (68), 1-(5-isoquinolinesulfonyl)-3-phenylaminopiperidine]

Further lines, the compound ahead of its results:

Row | Compound | pEC50 [1] | pEC50 [2]
11 | CNC1CCN(S(=O)(=O)c2cccc3c(O)nccc23)CC1 [Compound (80), 1-(1-hydroxy-5-isoquinolinesulfonyl)-4-methylaminopiperidine] | 4.80 | 4.85
12 | CCCCCCC(CN(CCCC)S(=O)(=O)c1cccc2cnccc12)NCCC (stereo not shown) [Compound (38), N-(2-propylaminoocytyl)-N-butyl-5-isoquinolinesulfonamide] | 4.64 | 5.10
13 | NC1CCCN(S(=O)(=O)c2cccc3c(Cl)nccc23)C1 (stereo not shown) [Compound (96), 1-(1-chloro-5-isoquinolinesulfonyl)-3-aminopiperidine] | 4.92 | 4.82
14 | CCCCCCN(CC(C)NCC)S(=O)(=O)c1cccc2cnccc12 (stereo not shown) [Compound (36), N-(2-ethylaminopropyl)-N-hexyl-5-isoquinolinesulfonamide] | 4.52 | 5.15
15 | CCCN(CCCCCCN)S(=O)(=O)c1cccc2cnccc12 [Compound (10), N-(6-aminohexyl)-N-propyl-5-isoquinolinesulfonamide] | 4.80 | 4.82
16 | CCCCCCN(CC(C)N1CCCCC1)S(=O)(=O)c1cccc2cnccc12 (stereo not shown) [Compound (48), N-hexyl-N-(2-piperidinopropyl)-5-isoquinolinesulfonamide] | 4.70 | 4.62
17 | CCCNC1CCCN(S(=O)(=O)c2cccc3cnccc23)C1 (stereo not shown) [Compound (66), 1-(5-isoquinolinesulfonyl)-3-propylaminopiperidine] | 5.10 | 5.30
18 | CCCCCCN(CC(N)CC)S(=O)(=O)c1cccc2cnccc12 (stereo not shown) [Compound (12), N-(2-aminobutyl)-N-hexyl-5-isoquinolinesulfonamide] | 4.92 | 5.40
19 | CCCCCCNCCCCCCN(CCCCCC)S(=O)(=O)c1cccc2cnccc12 [Compound (35), N-(6-hexylaminohexyl)-N-hexyl-5-isoquinolinesulfonamide] | 4.60 | 4.72
20 | O=S(=O)(c1cccc2cnccc12)N(CCNCc1ccccc1)Cc1ccccc1 [Compound (30), N-(2-benzylaminoethyl)-N-benzyl-5-isoquinolinesulfonamide] | 4.92 | 4.92
21 | CCCNC1CCN(S(=O)(=O)c2cccc3cnccc23)CC1 [Compound (54), 1-(5-isoquinolinesulfonyl)-4-propylaminopiperidine] | 4.85 | 4.89
22 | CCCCCCN(C(C)CCCN)S(=O)(=O)c1cccc2cnccc12 (stereo not shown) [Compound (21), N-(4-amino-1-methylbutyl)-N-hexyl-5-isoquinolinesulfonamide] | 4.77 | 4.72
23 | CNC1CCN(S(=O)(=O)c2cccc3c(Cl)nccc23)CC1 [Compound (94), 1-(1-chloro-5-isoquinolinesulfonyl)-4-methylaminopiperidine] | 4.66 | 4.74
24 | CCCCCCCCN(CCN)S(=O)(=O)c1cccc2cnccc12 [Compound (5), N-(2-aminoethyl)-N-octyl-5-isoquinolinesulfonamide] | 5.22 | 5.70
25 | O=S(=O)(c1cccc2c(O)nccc12)N1CCCC(NCc2ccccc2)C1 (stereo not shown) [Compound (86), 1-(1-hydroxy-5-isoquinolinesulfonyl)-3-benzylaminopiperidine] | 4.96 | 4.77
26 | CCCCCCN(CCCCCC)CCN(Cc1ccccc1)S(=O)(=O)c1cccc2cnccc12 [Compound (44), N-benzyl-N-(2-dihexylamimoethyl)-5-isoquinolinesulfonamide] | 4.54 | 4.68
27 | CCCCCCN(C(CCC)CCCN)S(=O)(=O)c1cccc2cnccc12 (stereo not shown) [Compound (24), N-(4-amino-1-propylbutyl)-N-hexyl-5-isoquinolinesulfonamide] | 4.77 | 4.64
28 | CC(C)NC1CCN(S(=O)(=O)c2cccc3cnccc23)CC1 [Compound (55), 1-(5-isoquinolinesulfonyl)-4-isopropylaminopiperidine] | 4.92 | 4.77
29 | CCCNCC(C)CCCCN(C)S(=O)(=O)c1cccc2cnccc12 (stereo not shown) [Compound (41), N-methyl-N-(6-propylamino-5-methylhexyl)-5-isoquinolinesulfonamide] | 4.66 | 4.77
30 | CCCCN(CCNCCc1ccccc1)S(=O)(=O)c1cccc2cnccc12 [Compound (31), N-butyl-N-(2-phenylethylaminoethyl)-5-isoquinolinesulfonamide] | 4.82 | 5.00
31 | CCCN(C(CN)C(C)C)S(=O)(=O)c1cccc2cnccc12 (stereo not shown) [Compound (18), N-(1-aminomethyl-2-methylpropyl)-N-propyl-5-isoquinolinesulfonamide] | 4.89 | 4.89
32 | CC1CCN(S(=O)(=O)c2cccc3cnccc23)CC1N (stereo not shown) [Compound (75), 1-(5-isoquinolinesulfonyl)-3-amino-4-methylpiperidine] | 4.80 | 4.70
33 | O=S(=O)(c1cccc2cnccc12)N1CCC(N2CCCCC2)CC1 [Compound (62), 1-(5-isoquinolinesulfonyl)-4-piperidinopiperidine] | 4.64 | 4.66
